Our source for the pest or weed control values is patent US20230017045A1, “PYRIDINE AND PYRIMIDINE CARBOXYLATE HERBICIDES AND METHODS OF USE THEREOF” (Dow AgroSciences LLC, priority 2017, published 2023).

This experiment relates to test plant species. The experiment can be described thus: Post-emergent herbicidal activity test (greenhouse, foliar spray, visual growth reduction). Format: in vivo. Conditions: post-emergence, 336 h, 140 g ai/ha. In a few lines: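 Greenhouse plants at first–second true leaf stage sprayed overhead at 187 L/ha with compound in acetone/water/isopropanol/DMSO/crop oil/X-77 carrier; controls received solvent blank. Injury rated visually after 14 d on a 0–100% scale versus untreated and control plants, converted to growth reduction.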

Where [1] appears, read: ECHCG: barnyardgrass (Echinochloa crus-galli), 14 days after application, read-out: Visual Growth Reduction (%) 14 Days After Application, ECHCG.
Where [2] appears, read: IPOHE: ivy-leaf morning glory (Ipomoea hederacea), 14 days after application, read-out: Visual Growth Reduction (%) 14 Days After Application, IPOHE.
The mark [3] stands for this setting: KCHSC: kochia (Bassia scoparia), 14 days after application, read-out: Visual Growth Reduction (%) 14 Days After Application, KCHSC.
[4] abbreviates: ORYSA: rice (Oryza sativa), 14 days after application, read-out: Visual Growth Reduction (%) 14 Days After Application, ORYSA.
The mark [5] stands for this setting: SETFA: giant foxtail (Setaria faberi), 14 days after application, read-out: Visual Growth Reduction (%) 14 Days After Application, SETFA.
[6] abbreviates: SORVU: grain sorghum (Sorghum vulgare), 14 days after application, read-out: Visual Growth Reduction (%) 14 Days After Application, SORVU.
Where [7] appears, read: STEME: common chickweed (Stellaria media), 14 days after application, read-out: Visual Growth Reduction (%) 14 Days After Application, STEME.
The mark [8] stands for this setting: TRZAS: wheat, spring (Triticum aestivum), 14 days after application, read-out: Visual Growth Reduction (%) 14 Days After Application, TRZAS.
[9] abbreviates: blackgrass (Alopecurus myosuroides), 14 Days After Application, read-out: Visual Growth Reduction (%) ALOMY.
Setting [10] is: canada thistle (Cirsium arvense), 14 Days After Application, read-out: Visual Growth Reduction (%) CIRAR.
The mark [11] stands for this setting: crabgrass (Digitaria sanguinalis), 14 Days After Application, read-out: Visual Growth Reduction (%) DIGSA.
[12] abbreviates: lambsquarters (Chenopodium album), 14 Days After Application, read-out: Visual Growth Reduction (%) CHEAL.
Setting [13] is: redroot pigweed (Amaranthus retroflexus), 14 Days After Application, read-out: Visual Growth Reduction (%) AMARE.
The mark [14] stands for this setting: wild oat (Avena fatua), 14 Days After Application, read-out: Visual Growth Reduction (%) AVEFA.
[15] abbreviates: yellow nutsedge (Cyperus esculentus), 14 Days After Application, read-out: Visual Growth Reduction (%) CYPES.

SMILES strings stand for the structures. Like-named read-outs stand apart in the source and are kept apart here.

As to `COC(=O)c1nc(-c2ccc3c(c2F)OC(F)(F)O3)c(F)cc1Cl` [F229, Methyl 3-chloro-5-fluoro-6-(2,2,4-trifluorobenzo[d][1,3]dioxol-5-yl)picolinate], the pest or weed control at 140 g/ha runs as follows: under setting [1], 85 to 94%; under setting [2], 95 to 100%; under setting [3], 95 to 100%; under setting [4], 0 to 29%; under setting [5], 85 to 94%; under setting [6], 95 to 100%. The pest or weed control at 140 g/ha runs as follows: under setting [7], 45 to 59%; under setting [8], 85 to 94%; under setting [9], 85 to 94%; under setting [10], 95 to 100%; under setting [11], 95 to 100%; under setting [12], 95 to 100%. The pest or weed control at 140 g/ha runs as follows: under setting [13], 95 to 100%; under setting [14], 95 to 100%; under setting [15], 45 to 59%.
Consider `COc1c(-c2nc(C(=O)O)c(Cl)cc2F)ccc(C(F)F)c1F` [F230, 3-Chloro-6-(4-(difluoromethyl)-3-fluoro-2-methoxyphenyl)-5-fluoropicolinic acid], for which the pest or weed control at 140 g/ha is, setting by setting: under setting [1], 60 to 74%; under setting [2], 95 to 100%; under setting [3], 95 to 100%; under setting [4], 0 to 29%; under setting [5], 30 to 44%; under setting [6], 60 to 74%. Moreover, the pest or weed control at 140 g/ha is, setting by setting: under setting [7], 0 to 29%; under setting [8], 0 to 29%; under setting [9], 0 to 29%; under setting [10], 95 to 100%; under setting [11], 0 to 29%; under setting [12], 95 to 100%. The pest or weed control at 140 g/ha runs as follows: under setting [13], 95 to 100%; under setting [14], 0 to 29%; under setting [15], 0 to 29%.
As to `COC(=O)c1nc(-c2cc(OC)c3c(c2)OCO3)c(F)cc1Cl` [F231, Methyl 3-chloro-5-fluoro-6-(7-methoxybenzo[d] [1,3]dioxol-5-yl)picolinate], the pest or weed control at 140 g/ha lay in the range of 0 to 29% under setting [1]; 0 to 29% under setting [2]; 0 to 29% under setting [3]; 0 to 29% under setting [4]; 0 to 29% under setting [5]; 0 to 29% under setting [6]. Besides, the pest or weed control at 140 g/ha by setting is: under setting [7], 0 to 29%; under setting [8], 0 to 29%; under setting [9], 0 to 29%; under setting [10], 0 to 29%; under setting [11], 0 to 29%; under setting [12], 0 to 29%. Also, the pest or weed control at 140 g/ha lay in the range of 0 to 29% under setting [13], 0 to 29% under setting [14] and 0 to 29% under setting [15].
For `COC(=O)c1nc(-c2cc3c(cc2Cl)OC(F)(F)O3)ncc1Cl` [F232, Methyl 5-chloro-2-(6-chloro-2,2-difluorobenzo[d][1,3]dioxol-5-yl)pyrimidine-4-carboxylate], the pest or weed control at 140 g/ha was 75 to 84% under setting [1]; 95 to 100% under setting [2]; 45 to 59% under setting [3]; 0 to 29% under setting [4]; 75 to 84% under setting [5]; 85 to 94% under setting [6]. Moreover, the pest or weed control at 140 g/ha under setting [7] fell in the range of 45 to 59%; the pest or weed control at 140 g/ha under setting [8] was 45 to 59%; the pest or weed control at 140 g/ha under setting [9] fell in the range of 0 to 29%; the pest or weed control at 140 g/ha under setting [10] is 85 to 94%; the pest or weed control at 140 g/ha under setting [11] is 95 to 100%; the pest or weed control at 140 g/ha under setting [12] fell in the range of 95 to 100%. Further, the pest or weed control at 140 g/ha runs as follows: under setting [13], 60 to 74%; under setting [14], 0 to 29%; under setting [15], 0 to 29%.
As to `COC(=O)c1nc(-c2ccc3c(c2C)OC(F)(F)O3)c(F)cc1Cl` [F233, Methyl 3-chloro-6-(2,2-difluoro-4-methylbenzo[d][1,3]dioxol-5-yl)-5-fluoropicolinate], the pest or weed control at 140 g/ha by setting is: under setting [1], 45 to 59%; under setting [2], 95 to 100%; under setting [3], 85 to 94%; under setting [4], 0 to 29%; under setting [5], 85 to 94%; under setting [6], 85 to 94%. In addition, the pest or weed control at 140 g/ha by setting is: under setting [7], 45 to 59%; under setting [8], 60 to 74%; under setting [9], 75 to 84%; under setting [10], 95 to 100%; under setting [11], 95 to 100%; under setting [12], 95 to 100%. The pest or weed control at 140 g/ha is 95 to 100% under setting [13], 45 to 59% under setting [14] and 45 to 59% under setting [15].
In the case of `COC(=O)c1nc(-c2ccc(F)c3c2OC(F)(F)O3)c(F)cc1Cl` [F234, Methyl 3-chloro-5-fluoro-6-(2,2,7-trifluorobenzo[d][1,3]dioxol-4-yl)picolinate], the pest or weed control at 140 g/ha lay within 0 to 29% under setting [1]; 60 to 74% under setting [2]; 0 to 29% under setting [3]; 0 to 29% under setting [4]; 0 to 29% under setting [5]; 0 to 29% under setting [6]. The pest or weed control at 140 g/ha runs as follows: under setting [7], 0 to 29%; under setting [8], 0 to 29%; under setting [9], 0 to 29%; under setting [10], 0 to 29%; under setting [11], 30 to 44%; under setting [12], 30 to 44%. For the same compound, the pest or weed control at 140 g/ha was in the range of 0 to 29% under setting [13], 0 to 29% under setting [14] and 0 to 29% under setting [15].
As for `COC(=O)c1nc(-c2ccc3c(c2OC)OC(F)(F)O3)c(F)cc1Cl` [F235, Methyl 3-chloro-6-(2,2-difluoro-4-methoxybenzo[d][1,3]dioxol-5-yl)-5-fluoropicolinate], the pest or weed control at 140 g/ha under setting [1] fell in the range of 95 to 100%; the pest or weed control at 140 g/ha under setting [2] was 95 to 100%; the pest or weed control at 140 g/ha under setting [3] lay within 95 to 100%; the pest or weed control at 140 g/ha under setting [4] fell in the range of 45 to 59%; the pest or weed control at 140 g/ha under setting [5] is 95 to 100%; the pest or weed control at 140 g/ha under setting [6] fell in the range of 95 to 100%. In addition, the pest or weed control at 140 g/ha under setting [7] was in the range of 85 to 94%; the pest or weed control at 140 g/ha under setting [8] was in the range of 95 to 100%; the pest or weed control at 140 g/ha under setting [9] was 60 to 74%; the pest or weed control at 140 g/ha under setting [10] was in the range of 95 to 100%; the pest or weed control at 140 g/ha under setting [11] was in the range of 95 to 100%; the pest or weed control at 140 g/ha under setting [12] was in the range of 95 to 100%. In addition, the pest or weed control at 140 g/ha lay within 95 to 100% under setting [13], 95 to 100% under setting [14] and 0 to 29% under setting [15].
Turning to `COC(=O)c1nc(-c2ccc(C3(C#N)CC3)cc2Cl)ccc1Cl` [F236, Methyl 3-chloro-6-(2-chloro-4-(1-cyanocyclopropyl)phenyl)picolinate], the pest or weed control at 140 g/ha under setting [1] lay in the range of 0 to 29%; the pest or weed control at 140 g/ha under setting [2] was 95 to 100%; the pest or weed control at 140 g/ha under setting [3] fell in the range of 75 to 84%; the pest or weed control at 140 g/ha under setting [4] lay in the range of 0 to 29%; the pest or weed control at 140 g/ha under setting [5] fell in the range of 75 to 84%; the pest or weed control at 140 g/ha under setting [6] lay in the range of 75 to 84%. The pest or weed control at 140 g/ha under setting [7] was 45 to 59%; the pest or weed control at 140 g/ha under setting [8] is 0 to 29%; the pest or weed control at 140 g/ha under setting [9] lay within 0 to 29%; the pest or weed control at 140 g/ha under setting [10] was 85 to 94%; the pest or weed control at 140 g/ha under setting [11] fell in the range of 75 to 84%; the pest or weed control at 140 g/ha under setting [12] lay in the range of 85 to 94%. Moreover, the pest or weed control at 140 g/ha lay in the range of 30 to 44% under setting [13], 0 to 29% under setting [14] and 0 to 29% under setting [15].
